In paper PMC10381170, “1,3,4-Oxadiazole and 1,3,4-Thiadiazole Nortopsentin Derivatives against Pancreatic Ductal Adenocarcinoma: Synthesis, Cytotoxic Activity, and Inhibition of CDK1” (Marine Drugs, 2023):

What was measured:
[1] = tested on: Panc-1-GR cells; assay: SRB antiproliferative assay, gemcitabine-resistant Panc-1-GR; assay type: cell-based, human
Description: (§1) The cytotoxic activity of the nortopsentin derivatives 3b, 3e, 4c, 5b, and 6c on pancreatic cancer cells (BxPC-3, Panc-1, Suit-2, Capan-1, PaTu-T, primary PDAC-3 and resistant Panc-1-GR cells) was determined by the sulforhodamine B (SRB) chemosensitivity assay, as described previously. Cells were plated in 96-well flat-bottom plates at final concentrations ranging from 3000–5000 cells/well in 100 µL of medium. After a 24 h pre-incubation period, cells were treated with the compounds at nine screening concentrations (from 0.1 μM to 40 μM) in triplicate and incubated at 37 °C for 72 h. After the treatment, cells were fixed with 25 µL of cold 50% trichloroacetic acid (TCA) for each well and incubated at 4 °C for 1 h. Afterwards, plates were washed five times with demi-water and air-dried overnight. Then, the plates were stained with 50 µL of 0.4% SRB solution in 1% acetic acid for 15 min. The excess stain was rinsed off by placing the plates under running 1% acetic acid and allowed to dry at room temperature overnight. SRB staining was rinsed with 150 µL tris(hydroxymethyl)aminomethane solution pH = 8.8 (TRIS-base), and the optical density (OD) was read at 492 nm. Each assay was performed in triplicate and assays were repeated at least three times. The comparison of the average optical density of the growth in control wells with that in the sample wells allowed the estimation of the percentage of cell growth, using the following equation: % Cell Growth = (mean ODcompound − mean ODday zero plate)/(mean ODcells − mean ODday zero plate) × 100
(§2) The results obtained were adjusted by the day zero plate (wells containing cells growing for only 24 h) and normalized by the control cells (wells with untreated cells) to obtain the rate of viable cells.

[2] = tested on: PDAC-3 cells; assay: SRB antiproliferative assay, primary culture PDAC-3; assay type: cell-based, human
Description: as §1, §2

[3] = tested on: normal human skin fibroblasts Hs27; assay: SRB cytotoxicity on normal fibroblasts; assay type: cell-based
Description: The compound was tested at eight different concentrations ranging from 0.31 μM to 40 μM using the SRB assay. […] At the highest concentration tested (40 μM), only 18% growth inhibition was observed after 72 h of exposure. […] These findings provide evidence of the potential safety of compound 3b for further development as a therapeutic agent.
as §1

[4] = tested on: Capan-1 cells; assay: SRB antiproliferative assay, Capan-1; assay type: cell-based, human
Description: as §1, §2

Cn1cc(-c2nnc(-c3cn(C)c4ncccc34)o2)c2ccccc21 [3b, 1-methyl-3-[5-(1-methyl-1H-indol-3-yl)-1,3,4-oxadiazol-2-yl]-7-azaindole]
Cell growth percentage ([1]; 10 μM, 72 h exposure): 22.47% | IC50 ([1]; Homo sapiens, 72 h, mean ± SEM, read-out: Half-maximal inhibitory concentration (IC50)): 8 ± 2.8 µM | IC50 ([2]; Homo sapiens, PDAC-3, 72 h, mean ± SEM, read-out: Half-maximal inhibitory concentration (IC50)): 8.1 ± 0.14 µM | Cell growth percentage ([2]; PDAC-3, 10 μM, 72 h exposure): 38.35% | growth inhibition ([3]; Hs27, 40 μM (highest concentration), 72 h): 18% | cytotoxicity towards normal fibroblast cells ([3]; Hs27, 0.31-40 μM): relatively non-toxic | cell growth rate ([3]; Hs27, concentrations below 10 μM, 72 h): ~100% | Cell growth percentage ([4]; Capan-1, 10 μM, 72 h exposure): 18.33% | IC50 ([4]; Homo sapiens, Capan-1, 72 h, mean ± SEM, read-out: Half-maximal inhibitory concentration (IC50)): 2.6 ± 0.62 µM
